Laboratory results published in US9278982B2, “Targeting human thymidylate kinase induces DNA repair toxicity in malignant tumor cells” (NATIONAL YANG-MING UNIVERSITY, priority 2010, dated 2016).

Tests used:
MDA-MB231 cells = test: Repair of doxorubicin-induced DNA lesions (γH2AX, Rad51, XRCC1 foci staining); type: cell-based, human
Description: FIG. 14. Effect of YMU1 on genomic toxicity and DNA repair. […] After overnight, cells were exposed to doxorubicin and recovered. […]
For γH2AX, Rad51 and XRCC1 staining, cells were fixed with 4% paraformaldehyde for 30 min at room temperature and were incubated with TBS (50 mM Tris-HCl, pH 7.4, 150 mM NaCl) plus 0.3% Triton X-100 for 5 min. The coverslips were blocked with MAXblock™ (Active Motif) for 1 h at 37° C., followed by staining with primary antibodies: anti-γH2AX monoclonal antibody (1:1000), anti-Rad51 polyclonal antibody (1:500) or anti-XRCC1 monoclonal antibody (1:500) overnight at 4° C. After extensive washing, cells were stained with secondary antibodies and Hoechst 33342 for 1 h at room temperature. After mounting, cells were analyzed and photographed with a Carl Zeiss fluorescence microscope equipped with AxioCam digital camera and Axio Vision Rel. 4.8 imaging software.

In vivo toxicity of YMU1 = test: In vivo toxicity of YMU1; parameters: species or system Balb/c mice
TMPK = target: T1, TMPK (Homo sapiens, UniProt P23919); test: In vitro TMPK inhibitory activity of TMPK inhibitor derivatives (inhibition yield); type: biochemical; parameters: GST (N, cleaved yes); made in house; host or cells: E. coli JM109 (pGEX-2T-hTMPK), inferred; details: 2 μM; n=3 or 6; read-out: inhibition yield, normalized to compound 21 (YMU1) = 100%
T1 sequence (P23919 1-212): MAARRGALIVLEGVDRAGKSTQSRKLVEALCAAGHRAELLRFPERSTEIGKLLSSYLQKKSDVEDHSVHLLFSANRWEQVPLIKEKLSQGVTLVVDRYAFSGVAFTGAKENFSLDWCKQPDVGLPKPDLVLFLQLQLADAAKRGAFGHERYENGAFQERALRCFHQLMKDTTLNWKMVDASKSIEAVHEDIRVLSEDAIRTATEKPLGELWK
Text: Chemical structures of the different TMPK inhibitor derivatives tested for in vitro TMPK inhibitory activity and in vivo doxorubicin sensitization activity (in MDA-MB231 cells) are depicted below.

thymidine kinase 1 (TK1) = target: T2, thymidine kinase 1 (TK1) (Homo sapiens, UniProt P04183); test: Luciferase-coupled TK assay; type: biochemical; details: GST-hTK1 protein (5 μg), 10 min preincubation
T2 construct: made in house; host or cells: E. coli JM109 (pGEX-3X-hTK1)
Description: FIG. 12. Identification of a novel hTMPK inhibitor. (A) A screen of TMPK inhibitor by luciferase-coupled assay. (B) The chemical structures of YMU1 (compound 21) and related molecules. (C) Effect of YMU1 and derivative compounds on hTMPK inhibition using purified hTMPK protein (0.5 μg) with 10 min preincubation prior to reaction using luciferase-coupled TMPK analysis. (D) Effect of YMU1 on activity of purified TMPK (0.5 μg) and GST-hTK1 protein (5 μg) with 10 min preincubation prior to reaction. Data represent mean±s.d. (n=4) (E) Molecular models of the TMPK-YMU1 complex. Left panel: TMPK/ATP/Mg+2; right panel: TMPK/YMU1. The TMPK is represented in surface electrostatic potential (upper) and structural ribbon (lower). ATP and YMU1 are shown in green and blue stick, respectively, with colored atom (O, red; S, yellow; P, orange). […]
The TK reaction was started by adding purified hTMPK in 50 μl of TK assay buffer (50 mM Tris-HCl, pH 7.5, 1 mM CHAPS, 3 mg/ml BSA, 2.5 mM MgCl2, 50 μM ATP and 100 μM thymidine) in 96 wells plate at 25° C. for 10 min and terminated by adding 200 μl of thymidine (1.25 mM), followed by transferring 10 μl of reaction solution to a white 96-wellplate containing 90 μl of luciferase assay buffer (50 mM Glycine, 0.5 mM EDTA and 5 mM EDTA, pH 7.0, 0.1 μg of luciferase, 50 μM luciferin and 0.1% BSA). The luminescence was measured with a luminescence counter (Packard).

[1] = target: T3, purified human thymidylate kinase (Homo sapiens, UniProt P23919); test: NADH-coupled TMPK assay (kinetic parameters); type: biochemical; details: for Ki: 10 min pre-incubation, average of three YMU1 concentrations
T3 construct: GST (N, cleaved yes); made in house; host or cells: E. coli JM109 (pGEX-2T-hTMPK)
T3 sequence (P23919 1-212): T1 sequence (P23919 1-212)
Description: The inhibitory mode of YMU1 was determined by pre-incubating different concentrations of YMU1 with purified hTMPK protein and measuring initial velocity using the conventional TMPK assay.
All reactions were performed in 96-well plates in an assay volume of 100 μl. The activity of hTMPK was measured at 25° C. using a modified NADH coupled colorimetric assay as described (Agarwal et al., 1978; Miyata et al., 2003; Ostermann et al., 2003), in which purified hTMPK was added to the buffer containing 100 mM Tris-HCl, pH 7.5, 100 mM KCl, 10 mM MgCl2, 0.5 mM phosphoenol pyruvate, 0.25 mM NADH, 5 units of lactate dehydrogenase, 4 units of pyruvate kinase, 1 mM ATP, and 200 μM dTMP. The change of NADH was measured by reading the absorbance at 340 nm. One unit of TMPK activity is defined as the conversion of 1 μmole of TMP to TDP per minute.

[2] = YMU1 2 μM 72 h, doxorubicin exposure and recovery

T2 sequence (P04183 whole entry): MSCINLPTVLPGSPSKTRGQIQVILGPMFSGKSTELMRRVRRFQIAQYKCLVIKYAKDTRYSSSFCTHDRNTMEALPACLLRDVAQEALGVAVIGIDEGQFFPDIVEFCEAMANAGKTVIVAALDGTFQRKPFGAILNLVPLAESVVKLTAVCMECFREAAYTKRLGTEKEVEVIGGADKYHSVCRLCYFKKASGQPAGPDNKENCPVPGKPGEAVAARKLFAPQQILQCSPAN

## CCOC(=O)N1CCN(C(=O)Cn2sc3nc(C)cc(C)c3c2=O)CC1 [compound 21, Ethyl 4-(2-(4,6-dimethyl-3-oxoisothiazolo[5,4-b]pyridin-2(3H)-yl)acetyl) piperazine-1-carboxylate]
MDA-MB231 cells; [2]
  Rad51 foci: persistent Rad51 foci
  XRCC1 foci formation: increase in XRCC1 foci formation
MDA-MB231 cells; YMU1 2 μM 72 h pre-treatment, doxorubicin 0.1 μM
  numbers of DNA lesions formation (γH2AX focus staining): did not affect numbers of DNA lesions formation
MDA-MB231 cells; YMU1 2 μM 72 h pretreatment, recovery 48 h post-doxorubicin (0.1 μM) exposure
  cells still γH2AX-positive: over 70%
In vivo toxicity of YMU1; Pre-treat, n = 4, Mean ± SEM
  Body weight: 19.93 ± 1.63 g
In vivo toxicity of YMU1; Treatment group n = 4, YMU1 4 weeks
  Clinical observations: Nil
In vivo toxicity of YMU1; Week -2, n = 4, Mean ± SEM
  Body weight: 20.88 ± 1.07 g
In vivo toxicity of YMU1; Week-1, n = 4, Mean ± SEM
  Body weight: 20.48 ± 1.43 g
In vivo toxicity of YMU1; Week-3, n = 4, Mean ± SEM
  Body weight: 21.25 ± 1.13 g
In vivo toxicity of YMU1; Week-4, n = 4, Mean ± SEM
  Body weight: 21.30 ± 0.96 g
In vivo toxicity of YMU1; YMU1 4 weeks, 2-fold higher dose regimen than in the tumor xenograft study
  mouse body weight: did not alter mouse body weight
In vivo toxicity of YMU1; YMU1 on its own, 4 weeks
  toxic effect in normal mice: produces no toxic effect
In vivo toxicity of YMU1; n = 4, Mean ± SEM
  Blood Chemistry, Alanine Aminotransferase: 32.00 ± 2.45 U/L
  Blood Chemistry, Alkaline Phosphatase: 389.25 ± 20.79 U/L
  Blood Chemistry, Aspartate Aminotransferase: 62.50 ± 5.26 U/L
  Blood Chemistry, Blood Urea Nitrogen: 19.08 ± 3.25 mg/dL
  Blood Chemistry, Creatinine: 0.10 ± 0.00 mg/dL
  Blood Chemistry, Total protein: 5.48 ± 0.25 g/dL
  Hematology, Hb: 16.25 ± 0.41 g/dl
  Hematology, PCV: 53.48 ± 2.50%
In vivo toxicity of YMU1; n = 4, Mean ± SEM, *P < 0.05
  Blood Chemistry, Glucose: 136.25 ± 14.31* mg/dl
TMPK
  inhibition at 2 µM: 100%
Thymidine kinase 1 (TK1)
  inhibitory effect on activity of purified thymidine kinase 1 (TK1): without inhibitory effect
[1]; ATP 1 mM, TMP varied 2~200 μM
  Ki: 220 ± 30 nM
[1]; ATP varied, YMU1 0.25 μM
  Vmax: 212.0 ± 10.3 nmol/min/mg
[1]; ATP varied, YMU1 0.5 μM
  Vmax: 94.8 ± 6.9 nmol/min/mg
[1]; ATP varied, YMU1 1 μM
  Vmax: 55.7 ± 1.3 nmol/min/mg
[1]; TMP 200 μM, ATP varied 5~1000 μM
  Ki: 180 ± 60 nM
[1]; TMP varied, YMU1 0.125 μM
  Vmax: 258.9 ± 12.4 nmol/min/mg
[1]; TMP varied, YMU1 0.25 μM
  Vmax: 180.6 ± 11.8 nmol/min/mg
[1]; TMP varied, YMU1 0.5 μM
  Vmax: 91.8 ± 6.4 nmol/min/mg
